Assay results: US11872262B2, “Means and methods for treating bacterial infections” (VIB VZW, priority 2017, dated 2024)
Residues, ends and D or L forms follow the SMILES beside them.

The compounds below were run on E. coli O157:H7. Details: screening-stage peptides tested at 1, 6, 12 and 25 μg/mL.
Format: cell-based, Escherichia coli
From the text: In the present invention we used the statistical thermodynamics algorithm TANGO to identify aggregation prone regions (APR) in the proteome of E. coli strain O157:H7. This yielded 3535 sequences of at least 6 amino acids in length and a TANGO score of at least 20%. In order to generate efficient aggregation seeds, we employed a previously devised tandem repeat design ^19, 21, in which the APRs are repeated once and separated by a linker. Given the length limitation on solid phase peptide synthesis with regard to yield and purity, we focused on the 1542 APRs with a length of 7 amino acids. In order to maximize the potential of these peptides to induce aggregation in E. coli, we ranked the APRs by their frequency of occurrence throughout the E. coli proteome, allowing a single amino acid mismatch, and selected the first 75 most frequently occurring sequences from this list (Table 4). In the design pattern, and in order to increase the colloidal stability of these aggregating peptides, the APRs are flanked by aggregation gatekeepers, a class of residues that was previously shown to reduce aggregation kinetics^22-24. […] To generate the tandem we used a single proline residue as a linker between the gatekeeper-flanked APRs. In addition to the 75 peptides generated in this fashion, we added 2 variants of each of the first 25 peptides in the list by randomly mutating one residue in the first APR repeat to arginine to further modulate the aggregation propensity of the peptides (Table 4). All the peptides were generated using solid phase synthesis at 200 nmole scale and dissolved in DMSO to a theoretical stock concentration of 2 mM (assuming 100% synthesis efficiency). Peptide activity on the growth of E. coli O157:H7 was measured at dilutions of the peptide corresponding to concentrations of 1, 6, 12 and 25 μg/mL. […] The Matthews Correlations Coefficient (MCC) with the measured activity was 0.1 at 12 μg/mL and 0.24 at 25 μg/mL.
`CC(C)C[C@H](NC(=O)[C@H](C)NC(=O)[C@H](CC(C)C)NC(=O)[C@H](CC(C)C)NC(=O)[C@H](CC(C)C)NC(=O)[C@H](CCCNC(=N)N)NC(=O)[C@@H]1CCCN1C(=O)[C@H](CCCNC(=N)N)NC(=O)[C@H](CCCNC(=N)N)NC(=O)[C@H](CO)NC(=O)[C@H](CC(C)C)NC(=O)[C@H](CC(C)C)NC(=O)[C@H](C)NC(=O)[C@H](CC(C)C)NC(=O)[C@H](CC(C)C)NC(=O)[C@H](CC(C)C)NC(=O)[C@@H](N)CCCNC(=N)N)C(=O)N[C@@H](CC(C)C)C(=O)N[C@@H](CO)C(=O)N[C@@H](CCCNC(=N)N)C(=O)N[C@@H](CCCNC(=N)N)C(=O)O` [Peptide P3] (H-RLLLALLSRRPRLLLALLSRR-OH; N-terminus and C-terminus assumed) was tested, and the “E. coli O157 (apparent MIC in screen)” value was 12 mg/L.
With `CC(C)C[C@H](NC(=O)[C@H](C)NC(=O)[C@H](CC(C)C)NC(=O)[C@H](CCCNC(=N)N)NC(=O)[C@@H]1CCCN1C(=O)[C@H](CCCNC(=N)N)NC(=O)[C@H](CCCNC(=N)N)NC(=O)[C@H](CC(C)C)NC(=O)[C@H](CC(C)C)NC(=O)[C@H](CC(C)C)NC(=O)[C@H](C)NC(=O)[C@H](CC(C)C)NC(=O)[C@H](C)NC(=O)[C@H](CC(C)C)NC(=O)[C@@H](N)CCCNC(=N)N)C(=O)N[C@@H](C)C(=O)N[C@@H](CC(C)C)C(=O)N[C@@H](CC(C)C)C(=O)N[C@@H](CC(C)C)C(=O)N[C@@H](CCCNC(=N)N)C(=O)N[C@@H](CCCNC(=N)N)C(=O)O` [Peptide P4] (H-RLALALLLRRPRLALALLLRR-OH; N-terminus and C-terminus assumed) the “E. coli O157 (apparent MIC in screen)” value was 6 mg/L.
In the case of `CC(C)C[C@H](NC(=O)[C@H](C)NC(=O)[C@H](CCCNC(=N)N)NC(=O)[C@@H]1CCCN1C(=O)[C@H](CCCNC(=N)N)NC(=O)[C@H](CCCNC(=N)N)NC(=O)[C@H](CC(C)C)NC(=O)[C@H](CC(C)C)NC(=O)[C@@H](NC(=O)[C@@H](NC(=O)[C@H](CC(C)C)NC(=O)[C@H](CC(C)C)NC(=O)[C@H](C)NC(=O)[C@@H](N)CCCNC(=N)N)[C@@H](C)O)[C@@H](C)O)C(=O)N[C@@H](CC(C)C)C(=O)N[C@H](C(=O)N[C@H](C(=O)N[C@@H](CC(C)C)C(=O)N[C@@H](CC(C)C)C(=O)N[C@@H](CCCNC(=N)N)C(=O)N[C@@H](CCCNC(=N)N)C(=O)O)[C@@H](C)O)[C@@H](C)O` [Peptide P5] (H-RALLTTLLRRPRALLTTLLRR-OH; N-terminus and C-terminus assumed), the “E. coli O157 (apparent MIC in screen)” value was 12 mg/L.
`CC(C)C[C@H](NC(=O)[C@H](C)NC(=O)[C@H](CCCNC(=N)N)NC(=O)[C@@H]1CCCN1C(=O)[C@H](CCCNC(=N)N)NC(=O)[C@H](CCCNC(=N)N)NC(=O)[C@H](CC(C)C)NC(=O)[C@H](CC(C)C)NC(=O)[C@H](C)NC(=O)[C@@H](NC(=O)[C@H](C)NC(=O)[C@H](CC(C)C)NC(=O)[C@H](C)NC(=O)[C@@H](N)CCCNC(=N)N)C(C)C)C(=O)N[C@@H](C)C(=O)N[C@H](C(=O)N[C@@H](C)C(=O)N[C@@H](CC(C)C)C(=O)N[C@@H](CC(C)C)C(=O)N[C@@H](CCCNC(=N)N)C(=O)N[C@@H](CCCNC(=N)N)C(=O)O)C(C)C` [Peptide P12] (H-RALAVALLRRPRALAVALLRR-OH; N-terminus and C-terminus assumed) was tested, and the “E. coli O157 (apparent MIC in screen)” value was 25 mg/L.
`CC(C)C[C@H](NC(=O)CNC(=O)[C@H](CCCNC(=N)N)NC(=O)[C@@H]1CCCN1C(=O)[C@H](CCCNC(=N)N)NC(=O)[C@H](CCCNC(=N)N)NC(=O)[C@H](C)NC(=O)[C@H](CC(C)C)NC(=O)[C@H](CC(C)C)NC(=O)[C@H](C)NC(=O)[C@H](CC(C)C)NC(=O)[C@H](CC(C)C)NC(=O)CNC(=O)[C@@H](N)CCCNC(=N)N)C(=O)N[C@@H](CC(C)C)C(=O)N[C@@H](C)C(=O)N[C@@H](CC(C)C)C(=O)N[C@@H](CC(C)C)C(=O)N[C@@H](C)C(=O)N[C@@H](CCCNC(=N)N)C(=O)N[C@@H](CCCNC(=N)N)C(=O)O` [Peptide P14] (H-RGLLALLARRPRGLLALLARR-OH; N-terminus and C-terminus assumed) was tested, and the “E. coli O157 (apparent MIC in screen)” value was 12 mg/L.
With `CC(C)C[C@H](NC(=O)[C@H](C)NC(=O)[C@H](CCCNC(=N)N)NC(=O)[C@@H]1CCCN1C(=O)[C@H](CCCNC(=N)N)NC(=O)[C@H](CCCNC(=N)N)NC(=O)[C@H](CC(C)C)NC(=O)[C@@H](NC(=O)[C@H](C)NC(=O)[C@@H](NC(=O)[C@H](CC(C)C)NC(=O)[C@H](CC(C)C)NC(=O)[C@H](C)NC(=O)[C@@H](N)CCCNC(=N)N)[C@@H](C)O)C(C)C)C(=O)N[C@@H](CC(C)C)C(=O)N[C@H](C(=O)N[C@@H](C)C(=O)N[C@H](C(=O)N[C@@H](CC(C)C)C(=O)N[C@@H](CCCNC(=N)N)C(=O)N[C@@H](CCCNC(=N)N)C(=O)O)C(C)C)[C@@H](C)O` [Peptide P16] (H-RALLTAVLRRPRALLTAVLRR-OH; N-terminus and C-terminus assumed) the “E. coli O157 (apparent MIC in screen)” value was 25 mg/L.
For `CC(C)C[C@H](NC(=O)[C@H](C)NC(=O)[C@H](CC(C)C)NC(=O)[C@@H](NC(=O)[C@H](C)NC(=O)[C@H](CO)NC(=O)[C@H](CCCNC(=N)N)NC(=O)[C@@H]1CCCN1C(=O)[C@H](CCCNC(=N)N)NC(=O)[C@H](CCCNC(=N)N)NC(=O)[C@H](CC(C)C)NC(=O)[C@H](CC(C)C)NC(=O)[C@H](C)NC(=O)[C@H](CC(C)C)NC(=O)[C@@H](NC(=O)[C@H](C)NC(=O)[C@H](CO)NC(=O)[C@@H](N)CCCNC(=N)N)C(C)C)C(C)C)C(=O)N[C@@H](CC(C)C)C(=O)N[C@@H](CCCNC(=N)N)C(=O)N[C@@H](CCCNC(=N)N)C(=O)O` [Peptide P18] (H-RSAVLALLRRPRSAVLALLRR-OH; N-terminus and C-terminus assumed), the “E. coli O157 (apparent MIC in screen)” value was 12 mg/L.
In the case of `CC[C@H](C)[C@H](NC(=O)[C@H](CC(C)C)NC(=O)[C@H](CC(C)C)NC(=O)[C@H](C)NC(=O)[C@H](CCCNC(=N)N)NC(=O)[C@@H]1CCCN1C(=O)[C@H](CCCNC(=N)N)NC(=O)[C@H](CCCNC(=N)N)NC(=O)[C@H](CC(C)C)NC(=O)[C@H](CC(C)C)NC(=O)[C@@H](NC(=O)[C@@H](NC(=O)[C@H](CC(C)C)NC(=O)[C@H](CC(C)C)NC(=O)[C@H](C)NC(=O)[C@@H](N)CCCNC(=N)N)[C@@H](C)CC)[C@@H](C)O)C(=O)N[C@H](C(=O)N[C@@H](CC(C)C)C(=O)N[C@@H](CC(C)C)C(=O)N[C@@H](CCCNC(=N)N)C(=O)N[C@@H](CCCNC(=N)N)C(=O)O)[C@@H](C)O` [Peptide P23] (H-RALLITLLRRPRALLITLLRR-OH; N-terminus and C-terminus assumed), the “E. coli O157 (apparent MIC in screen)” value was 25 mg/L.
With `CC(C)C[C@H](NC(=O)CNC(=O)[C@@H](NC(=O)[C@H](Cc1ccccc1)NC(=O)[C@H](CC(C)C)NC(=O)[C@H](CCCNC(=N)N)NC(=O)[C@@H]1CCCN1C(=O)[C@H](CCCNC(=N)N)NC(=O)[C@H](CCCNC(=N)N)NC(=O)[C@H](CC(C)C)NC(=O)[C@H](C)NC(=O)[C@H](CC(C)C)NC(=O)CNC(=O)[C@@H](NC(=O)[C@H](Cc1ccccc1)NC(=O)[C@H](CC(C)C)NC(=O)[C@@H](N)CCCNC(=N)N)C(C)C)C(C)C)C(=O)N[C@@H](C)C(=O)N[C@@H](CC(C)C)C(=O)N[C@@H](CCCNC(=N)N)C(=O)N[C@@H](CCCNC(=N)N)C(=O)O` [Peptide P26] (H-RLFVGLALRRPRLFVGLALRR-OH; N-terminus and C-terminus assumed) the “E. coli O157 (apparent MIC in screen)” value was 25 mg/L.
With `CC(C)C[C@H](NC(=O)[C@H](C)NC(=O)[C@H](CC(C)C)NC(=O)[C@@H](NC(=O)[C@@H](NC(=O)[C@H](C)NC(=O)[C@H](CCCNC(=N)N)NC(=O)[C@@H]1CCCN1C(=O)[C@H](CCCNC(=N)N)NC(=O)[C@H](CCCNC(=N)N)NC(=O)[C@H](CC(C)C)NC(=O)[C@H](CC(C)C)NC(=O)[C@H](C)NC(=O)[C@H](CC(C)C)NC(=O)[C@@H](NC(=O)[C@@H](NC(=O)[C@H](C)NC(=O)[C@@H](N)CCCNC(=N)N)[C@@H](C)O)C(C)C)[C@@H](C)O)C(C)C)C(=O)N[C@@H](CC(C)C)C(=O)N[C@@H](CCCNC(=N)N)C(=O)N[C@@H](CCCNC(=N)N)C(=O)O` [Peptide P29] (H-RATVLALLRRPRATVLALLRR-OH; N-terminus and C-terminus assumed) the “E. coli O157 (apparent MIC in screen)” value was 25 mg/L.
With `CC[C@H](C)[C@H](NC(=O)CNC(=O)[C@H](CC(C)C)NC(=O)[C@H](CCCNC(=N)N)NC(=O)[C@@H]1CCCN1C(=O)[C@H](CCCNC(=N)N)NC(=O)[C@H](CCCNC(=N)N)NC(=O)[C@H](CC(C)C)NC(=O)[C@H](C)NC(=O)[C@@H](NC(=O)[C@H](C)NC(=O)[C@@H](NC(=O)CNC(=O)[C@H](CC(C)C)NC(=O)[C@@H](N)CCCNC(=N)N)[C@@H](C)CC)C(C)C)C(=O)N[C@@H](C)C(=O)N[C@H](C(=O)N[C@@H](C)C(=O)N[C@@H](CC(C)C)C(=O)N[C@@H](CCCNC(=N)N)C(=O)N[C@@H](CCCNC(=N)N)C(=O)O)C(C)C` [Peptide P33] (H-RLGIAVALRRPRLGIAVALRR-OH; N-terminus and C-terminus assumed) the “E. coli O157 (apparent MIC in screen)” value was 25 mg/L.
